Measured values published in EP2258370A1, “Treatment of malignant diseases” (Medizinische Universität Wien, priority 2009, dated 2010).

What was measured:
MCF-7 cells = assay: MCF-7 human breast cancer xenograft in athymic nude mice; assay type: in vivo; conditions: intraperitoneal osmotic minipump from day 24, day 38, control 210 ± 31 mg
Procedure: On the indicated days, tumour sizes were determined with a caliper and tumour volumes calculated according to the following formula: tumour volume = [(length x width^2) x […]].
All mice were sacrificed on day 38 and tumour weights were then determined.

SW620 cells = assay: SW620 human colon cancer xenograft in athymic nude mice; conditions: 100µg/day for 2 weeks, intraperitoneal osmotic minipump from day 8, day 22; for mean tumour weight: control 793; for Mean tumour weight (±SD): control 793 ± 328 mg
Procedure: 8 x 10^6 SW620 cells/100µl PBS were injected subcutaneously into the left flank. […] Control mice received osmotic pumps filled with Ringer's solution. All mice were sacrificed on day 22 and tumour weights were then determined.

SW620 (colon carcinoma) = assay: Cell proliferation assay (WST-1); assay type: cell-based; conditions: 25 and 50 µM, 24 h, 48 h and 72 h, WST-1, Figs. 2a-f
Procedure: (§1) Rac-1 inhibitor compounds were tested in cell proliferation assays performed with following cancer cell lines: MCF7 (mammary carcinoma), SW620 (colon carcinoma), CRL 2505 (prostate carcinoma). The level of proliferation was measured at 24 hours (h), 48 h and 72 h after in vitro induction of compounds. Two different concentrations of compounds were tested for each cell line (25 and 50 µM, see Figs. 2a-f; the asteriks indicates significant change versus control group (no compound induction) at all incubation points (p<0.02)).
(§2) The proliferation assay was performed with Cell Proliferation Reagent WST-1 (Roche Cat. No. 1644 807). The cells were cultured 2 x 10^4 cells/well in microplates (96 wells, flat bottom). The Cell Proliferation Reagent WST-1 (10 µl/well) was added to each experimental group (Figs. 2a-f). After 4 hours of incubation (37°C) the absorbance was measured by Microplate (ELISA) reader at 450 nm optical density (OD). The reference wavelength was 620 nm.
(§3) All experimental compounds (compounds 1, 2, 3-10, 18, 53) were solved in 1% DMSO solution. Therefore, additional experimental group (1% DMSO) was used to examine proliferation activity of used cell lines in presence of 1% DMSO.
(§4) All measurements were corrected to the blank absorbance (medium with 10 µl Cell Proliferation Reagent WST-1, no cells).

[1] = system: CRL 2505 (prostate carcinoma); assay: Cell proliferation assay (WST-1); assay type: cell-based; conditions: 25 and 50 µM, 24 h, 48 h and 72 h, WST-1, Figs. 2a-f
Procedure: as §1, §2, §3, §4

MCF7 (mammary carcinoma) = assay: Cell proliferation assay (WST-1); assay type: cell-based; conditions: 25 and 50 µM, 24 h, 48 h and 72 h, WST-1, Figs. 2a-f
Procedure: as §1, §2, §3, §4

PC-3 = conditions: Rac-hyperactive prostate cancer cells; cited from earlier work

Structure (SMILES)	mean tumour weight (MCF-7 cells; 25µg per day) [mg]	mean tumour weight (MCF-7 cells; 50µg per day) [mg]	mean tumour weight (MCF-7 cells; 100µg per day) [mg]	Mean tumour weight (% of control (co)) (SW620 cells)	mean tumour weight (SW620 cells) [mg]	Mean tumour weight (±SD) (SW620 cells) [mg]	inhibiting proliferation of the tumour cells (SW620 (colon carcinoma))	inhibiting proliferation of the tumour cells [1]	inhibiting proliferation of the tumour cells (MCF7 (mammary carcinoma))	proliferation, anchorage independent growth, and invasion (PC-3)
CCN(CC)CCCC(C)Nc1nc(C)cc(NCCc2c[nH]c3ccc(O)cc23)n1 (racemic) [Compound 2, 3-{2-[2-(4-Diethylamino-1-methyl-butylamino)-6-methyl-pyrimidin-4-ylamino]-ethyl}-1H-indol-5-ol]	185 ± 54	152 ± 70	118 ± 60	77 % of control (co)	612	612	effective in inhibiting proliferation	effective in inhibiting proliferation	effective in inhibiting proliferation	
CCN(CC)CCCC(C)Nc1nc(C)cc(Nc2ccc3nc(C)cc(N)c3c2)n1 (racemic) [NSC23766, N6-(2-((4-(diethylamino)-1-methylbutyl)amino)-6-methyl-4-pyrimidinyl)-2-methyl-4,6-quinolinediamine, reference compound]				107 % of control (co)	846	846 ± 256				able to inhibit proliferation, anchorage independent growth, and invasion
CCN(CC)CCCC(C)Nc1nc(C)cc(NCCc2c[nH]c3ccccc23)n1 (stereo not shown) [Compound 1, N2-(4-Diethylamino-1-methyl-butyl)-N4-[2-(1H-indol-3-yl)-ethyl]-6-methyl-pyrimidine-2,4-diamine]				74 % of control (co)	583	583 ± 151	effective in inhibiting proliferation	effective in inhibiting proliferation	effective in inhibiting proliferation	
